Experimental data from patent publication US10556860B2, “hTERT modulators and methods of use” (Arizona Board of Regents on Behalf of the University of …, priority 2015, dated 2020).
“And” between values parts separate entries of the source, which are not always exact repeats. Equal entries are not always repeated.

Experiments:
[1] = system: hTERT WT G4 (5-12 G-quadruplex); assay: CD melting (Tm), hTERT WT G4; assay type: binding, human
Description: (§1) Circular dichroism. Oligomers of WT, G124A, G124/125A, G138/139A and G146A were synthesized and HPSF-purified by MGW Operon, Inc. For CD analysis, oligomers (5 μM) in a buffer containing 10 mM Tris-HCl (pH 7.5) and 140 mM KCl were annealed. For the CD analysis of the complex of oligomers and compounds, oligomers (5 μM) in a buffer containing 10 mM Tris-HCl (pH 7.5) and 5 mM KCl for GTC365 or 1 mM KCl for BRACO-19 were annealed. Oligomers and GTC365 or BRACO-19 were incubated overnight at room temperature. For the full-length of C-rich strand, the oligomer in a buffer of 10 mM Na cacodylate (pH 6.6) was annealed and then incubated with GTC365 overnight. CD analysis was conducted on a Jasco 810 spectropolarimeter (Jasco, Easton, Md.) using a quartz cell with 1 mm of path length, 1 nm of band width, and 1 s of response time for spectra at 20° C. Melting curves for the determination of Tm were obtained by recording ellipticity at 262 nm with increasing temperatures from 25° C. to 95° C. at a rate of 1.6° C./min. Tm of the C-rich strand with GTC365 was obtained from the CD signal at 286 nm within 10-60° C.
(§2) CD and DMS footprinting analyses were conducted to characterize the binding of GTC365 and BRACO-19 to the 5-12 G-quadruplex. […] To verify the effects of compounds on the thermal stability of the WT and the mutant G-quadruplexes, Tms were determined by CD. […] Since acridine derivatives are known to bind to telomeric G-quadruplex, the effects of GTC365 and BRACO-19 on telomeric G-quadruplex stability were compared by CD.

[2] = system: Telomeric G4; assay: CD melting (Tm), telomeric G4; assay type: binding
Description: as §1, §2
In contrast, BRACO-19 increased the Tm of telomeric G-quadruplex by ˜60% compared to that of the hTERT G-quadruplex at 0.5 and 1 equiv. A summary of the comparative Tms of GTC365 and BRACO-19 in hTERT and telomeric DNA is shown below.

[3] = system: WT 5-12 G-quadruplex; assay: CD kinetics, temperature-jump, WT; assay type: biochemical, human; details: 2 equiv
Description: FIGS. 10A and 10B are a set of graphs showing (A) comparison of kinetics of initial folding rate of the WT 5-12 G-quadruplex with GTC365 and BRACO-19 by the temperature-jump method. (B) Enhanced initial folding rate of the 5-12 G-quadruplexes carrying different hTERT mutants by GTC365. The time-course CD signal of preheated oligo with compound or DMSO in a buffer containing 10 mM Tris-HCl (pH 7.5) and 5 mM KCl was monitored at 262 nm and 25° C.
For the kinetics analysis using the temperature-jump method, theoligo in a buffer containing 10 mM Tris-HCl (pH 7.5) was heated forl min at 95° C., and then a mixture of KCl and compound was addedand incubated for 1 min. Meanwhile, the CD cuvette was also heatedat 95° C. As soon as the sample in the CD cuvette at the hightemperature was placed in the CD chamber, a time-dependent CDsignal at 262 nm was recorded immediately. The initial folding ratewas determined by one-phase association curve fitting (eq 1) of thekinetics curve using GraphPad Prism 5: Y=Y0+(Plateau−Y0)*(1−e^−kx) (1) where Y is the CD signal at any time point x, Y0 is the Y value whentime (x) is zero, plateau is the Y value at infinite time, and k is the rateconstant.
To evaluate the comparative effects of GTC365 relative to BRACO-19 on the cooperative folding process, we carried out two different experiments. First, we compared the distribution of the different populations of small and large species using single-molecule experiments as described previously withGTC365 and BRACO-19 in the G138/139A mutant. Similar to the G124/125A mutant, the population of fully folded structures is small in the G138/139A mutant without addition of ligand. […] We then used a temperature-jump method84to compare the initial folding rate of the 5-12 WT G-quadruplex with GTC365 and BRACO-19 using a time-course CD signal curve. […] GTC365 alsoincreased the initial folding rates of G124A, G124/125A, andG146A in a dose-dependent manner by 0.049, 0.042, and 0.054s^−1 at 2 equiv, whereas the effect on the G138/139A mutant was insignificant (FIG. 10B). […]

[4] = system: hTERT mRNA; assay: qPCR of hTERT mRNA in MCF7 cells; assay type: cell-based, human
Description: (§3) qPCR. MCF7 and melanoma cells were treated with GTC365 and BRACO-19 for 72 h. Total RNA was extracted using an RNeasy mini-prep kit (Qiagen) and quantitated by measuring absorbance at 260 nm. cDNA was synthesized using a Takara PrimeScript™ RT Reagent Kit with gDNA eraser and then used as a template for qPCR. The qPCR was performed using Kapa Probe Fast qPCR Master Mix with ABI Taqman probes of hTERT (Hs00972656_m1), BCL2 (HS00608023_m1, FAM-labeled) or MYC (Hs00153408_m1), and GAPDH (Hs02758991_g1, VIC-labeled). The Ct values were measured by running Rotor-Gene Q, and the relative quantity of hTERT, BCL2, and MYC mRNA was obtained compared to GAPDH as an internal control.
(§4) BCL2 is a downstream molecule to hTERT such that BCL2 expression is activated by hTERT to repress apoptosis. To further define the effect of GTC365 on the transcription of hTERT, the relative mRNA levels of MYC and BCL2 were determined by quantitative PCR analysis in MCF7 cells after treatment with GTC365 for 72 h. […] A series of GTC260 analogs were synthesized and their effect on hTERT gene expression in MCF7A and U87 cells determined (FIG. 7). […] Therefore, GTC365 directly repressed the transcription of hTERT and then led to a downstream decrease of BCL2 expression.

[5] = system: BCL2 mRNA; assay: qPCR of BCL2 mRNA in MCF7 cells; assay type: cell-based, human; details: 72 h
Description: as §3, §4

[6] = system: MYC mRNA; assay: qPCR of MYC mRNA in MCF7 cells; assay type: cell-based, human; details: 72 h
Description: as §3, §4

Row | Structure (SMILES) | increase in Tm (ΔTm) ([1]; 1 equivalent) | increase in Tm (ΔTm) ([1]; 2 equivalents) | Tm increase of telomeric G-quadruplex less than that of the hTERT G-quadruplex ([2]; 1 and 2 equiv) | increase in Tm (ΔTm) ([2]; 1 equivalent) | increase in Tm (ΔTm) ([2]; 2 equivalents) | increase of initial folding rate [3] | initial folding rate ([3]; without compound 0.051, 5 mM KCl, 25° C.) | effect on hTERT transcription / mRNA level [4] | decrease of hTERT mRNA level ([4]; 72 h, 1 μM) | decrease of BCL2 mRNA level ([5]; 1 μM) | effect on MYC mRNA level [6] | increase in Tm (ΔTm) ([1]; 0.5 equivalents) | Tm of telomeric G-quadruplex increased compared to that of the hTERT G-quadruplex ([2]; 0.5 and 1 equiv) | increase in Tm (ΔTm) ([2]; 0.5 equivalents) | effect on BCL2 mRNA level [5]
1 | N=C(N)NCCCS(=O)(=O)Nc1ccc(Nc2c3ccccc3nc3cc([N+](=O)[O-])ccc23)cc1 [GTC365] | 6.47 °C | 12.9 °C and 12.92 °C | 42% | 4.4 °C | 7.5 °C | 0.042 s⁻¹ | 0.093 s⁻¹ | significant effect | up to 67% | up to 18% | no significant change |  |  |  | 
2 | CN(C)c1ccc(Nc2c3ccc(NC(=O)CCN4CCCC4)cc3nc3cc(NC(=O)CCN4CCCC4)ccc23)cc1 [BRACO-19, reference compound] | 8.73 °C |  |  | 14.6 °C |  | 0.017 s⁻¹ |  | decreased |  |  | decreased | 2.41 °C | ~60% | 4.24 °C | no significant effect
